Results published in US12258625B2, “Compositions and methods relating to nucleic acid interaction reporters” (Trustees of Boston University, priority 2022, dated 2025).

Test system: miR-430 target site
Test: microRNA sensor (Ago2 fused to Adar catalytic subunit)
Assay type: in vivo, zebrafish
Procedure: In this case, the writer comprises a protein fusion between a protein from the Argonaute family and the catalytic domain of the RNA-editing enzyme ADAR. The recorder must contain the target site of the microRNA of interest, usually the 6 to 8 nucleotides complementary to the miRNA seed region. In the presence of the writer, the recorder and the miRNA of interest, the ternary interaction is recorded as RNA editing in the recorder mRNA. The number of edits will be proportional to the strength of the microRNA-target site interaction. Other variants of this approach include expressing the Ago-Adar writer together with a library of recorders that containing all possible 8-nucleotide sequences as binding site. […]
FIG. 18 depicts a microRNA sensor. miR-430 is a small non-coding regulatory microRNA that recognize their targets mRNAs trough interaction and pairing. miR-430 binds to the effector protein Ago2 and together form a riboprotein complex that recognizes and binds to target mRNAs. miR-430 is the only microRNA expressed during early embryogenesis. […] Only with the tertiary interaction between Ago2, a microRNA, and the target is reconstituted, is editing detected.
Usage of the interactome recorder system to determine microRNA activity in vivo (FIG. 8A). […] In the presence of the writer, the recorder and the miRNA of interest, the ternary interaction is recorded as RNA editing in the recorder mRNA. […]

## CC[C@H](C)[C@@H]1NC(=O)CNC(=O)[C@@H]2Cc3c([nH]c4cc(O)ccc34)[S+]([O-])C[C@@H](NC(=O)CNC1=O)C(=O)N[C@@H](CC(N)=O)C(=O)N1C[C@H](O)C[C@H]1C(=O)N[C@@H]([C@@H](C)[C@@H](O)CO)C(=O)N2 (stereo partly drawn) [alpha-Amanitin]
Embryos injected with alpha-Amanitin
  editing of the recorder: not when endogenous miR-430 expression is inhibited
injection, early embryogenesis
  miR-430 expression: prevents its expression
